Experimental data reported in ChEMBL document CHEMBL2331088, “An α-carbonic anhydrase from the thermophilic bacterium Sulphurihydrogenibium azorense is the fastest enzyme known for the CO2 hydration reaction” (Bioorg Med Chem, 2013).

How the values were obtained:
[1] = Inhibition of Sulfurihydrogenibium azorense carbonic anhydrase preincubated for 15 mins by CO2 hydration stopped-flow assay
[2] = Inhibition of Sulfurihydrogenibium yellowstonense YO3AOP1 carbonic anhydrase preincubated for 15 mins by CO2 hydration stopped-flow assay
[3] = Inhibition of Helicobacter pylori alpha-carbonic anhydrase preincubated for 15 mins by CO2 hydration stopped-flow assay

Row | SMILES | Ki [1] | Ki [2] | Ki [3]
1 | N=C=S [ISOTHIOCYANATE] | 580 µM | 710 µM | 4100 µM
2 | F [FLUORIDE ION] | 980 µM | 417000 µM | 4080 µM
3 | O=S(=O)(O)O [SULFURIC ACID] | 10000 µM | 820 µM | 820 µM
4 | O=C(O)O [BICARBONATE] | 15700 µM | 33200 µM | 
5 | CCN(CC)C(=S)S [DITIOCARB] | 3.1 µM | 4 µM | 5 µM
6 | Cl [HYDROCHLORIC ACID] | 850 µM | 8300 µM | 2700 µM
7 | CC(=O)Nc1nnc(S(N)(=O)=O)s1 [ACETAZOLAMIDE] | 0.0009 µM | 0.004 µM | 
8 | S=C(S)S [CARBONOTRITHIOIC ACID] | 39 µM | 60 µM | 380 µM
9 | N=C=[Se] [ISOSELENOCYANATE] | 490 µM | 70 µM | 730 µM
10 | NS(=O)(=O)O [SULFAMATE] | 4.8 µM | 42 µM | 80 µM
11 | O=S(O)O [SULFUROUS ACID] | 950 µM | 21100 µM | 990 µM
12 | Br [BROMIDE] | 940 µM | 49000 µM | 2410 µM
13 | S [HYDROGEN SULFIDE] | 380 µM | 580 µM | 
14 | I [IODIDE] | 870 µM | 860 µM | 6050 µM
